Source: the supplement of paper PMC10307832

Tests used:
Test in all cases: relative viability (nuclei count vs DMSO), 5 days (fraction); higher = more cells survive
Masitinib + Dasatinib = compound: Cc1ccc(NC(=O)c2ccc(CN3CCN(C)CC3)cc2)cc1Nc1nc(-c2cccnc2)cs1 [Masitinib] + Cc1nc(Nc2ncc(C(=O)Nc3c(C)cccc3Cl)s2)cc(N2CCN(CCO)CC2)n1 [Dasatinib] (partner 0.075 µM)
How it was run: (§1)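 The day after seeding in 1536-well plates, lung cancer cell lines were treated by pin tool with a single drug, or with a fixed anchor-drug dose together with five library-drug doses (not always all listed) in √10 steps. After 5 days, a combined fix-and-stain solution (final 0.05% Triton X-100, 1% formaldehyde, 1 ug/ml Hoechst) was added. Nuclei counted on 4× images gave relative viability as treated counts over vehicle counts, reported as the median of duplicate plates.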

[1] = compound: CC1=CC(=CC=C1)NC2=NC(=CS2)C3=CC=NC=C3 + CS(=O)(=O)N1CCN(Cc2cc3nc(-c4cccc5[nH]ncc45)nc(N4CCOCC4)c3s2)CC1 [Pictilisib] (partner 1 µM)
How it was run: as §1

[2] = compound: CC1=CC(=CC=C1)NC2=NC(=CS2)C3=CC=NC=C3 + CC(C)C[C@H](NC(=O)[C@H](Cc1ccccc1)NC(=O)c1cnccn1)B(O)O [Bortezomib] (partner 0.002 µM)
How it was run: as §1

[3] = compound: CC1=CC(=CC=C1)NC2=NC(=CS2)C3=CC=NC=C3 + O=C(c1cc(Cc2n[nH]c(=O)c3ccccc23)ccc1F)N1CCN(C(=O)C2CC2)CC1 [Olaparib] (partner 8 µM)
How it was run: as §1

Cell Line | relative viability (Masitinib + Dasatinib; first compound 0.01 µM) | relative viability (Masitinib + Dasatinib; first compound 0.03162 µM) | relative viability (Masitinib + Dasatinib; first compound 0.1 µM) | relative viability (Masitinib + Dasatinib; first compound 0.3162 µM) | relative viability (Masitinib + Dasatinib; first compound 1 µM) | relative viability ([1]; first compound 0.08 µM) | relative viability ([1]; first compound 0.253 µM) | relative viability ([1]; first compound 0.8 µM) | relative viability ([1]; first compound 2.53 µM) | relative viability ([1]; first compound 8 µM) | relative viability ([2]; first compound 0.08 µM) | relative viability ([2]; first compound 0.253 µM) | relative viability ([2]; first compound 0.8 µM) | relative viability ([2]; first compound 2.53 µM) | relative viability ([2]; first compound 8 µM) | relative viability ([3]; first compound 0.08 µM) | relative viability ([3]; first compound 0.253 µM) | relative viability ([3]; first compound 0.8 µM) | relative viability ([3]; first compound 2.53 µM) | relative viability ([3]; first compound 8 µM)
201T | 0.53 | 0.594 | 0.521 | 0.42 | 0.491 | 0.547 | 0.537 | 0.598 | 0.565 | 0.602 | 1.05 | 1.06 | 1.08 | 0.888 | 0.919 | 0.853 | 0.845 | 0.788 | 0.826 | 0.757
A549 | – | – | – | – | – | 0.399 | 0.472 | 0.524 | 0.525 | 0.418 | – | – | – | – | – | 0.264 | 0.37 | 0.353 | 0.261 | 0.449
A-427 | – | 0.726 | – | 0.802 | 0.695 | 0.633 | 0.71 | 0.692 | – | 0.655 | 0.84 | 1.03 | 0.895 | – | 0.84 | 0.456 | 0.576 | 0.565 | 0.683 | 0.615
ABC-1 | 0.58 | 0.588 | 0.629 | 0.428 | 0.521 | 0.48 | 0.665 | 0.686 | 0.634 | 0.486 | 0.316 | 0.265 | 0.328 | 0.315 | 0.32 | 0.48 | – | 0.735 | 0.525 | 0.574
BEN | 0.341 | – | 0.271 | 0.308 | 0.281 | 0.543 | 0.528 | 0.585 | 0.446 | 0.543 | 0.816 | 0.618 | 0.546 | 0.697 | 0.794 | 0.928 | 1.15 | 1.1 | 0.975 | 1.09
CAL-12T | 0.452 | 0.381 | 0.34 | 0.306 | 0.374 | 0.286 | – | 0.557 | 0.261 | 0.388 | 0.757 | – | 1.01 | 0.719 | 0.954 | 0.614 | 0.677 | 0.609 | 0.792 | 0.617
COR-L23 | 0.411 | 0.419 | 0.531 | 0.437 | 0.543 | 0.539 | 0.57 | 0.451 | 0.714 | 0.661 | 1.01 | 0.913 | 0.779 | 0.924 | 0.595 | 0.308 | 0.283 | 0.245 | 0.322 | 0.285
COR-L 105 | 0.37 | 0.338 | 0.305 | 0.288 | 0.286 | 0.322 | 0.427 | 0.374 | 0.413 | 0.393 | 0.7 | 0.804 | 0.734 | 0.563 | 0.456 | 0.575 | 0.499 | 0.477 | 0.541 | 0.457
Calu-6 | – | – | – | – | – | 0.796 | 0.718 | 0.659 | 0.815 | 0.803 | 0.951 | 0.838 | 0.88 | 0.94 | 0.926 | 0.422 | 0.471 | 0.43 | 0.479 | 0.407
ChaGo-K-1 | 0.577 | 0.575 | 0.54 | 0.546 | 0.629 | 0.697 | 0.447 | 0.691 | 0.36 | 0.639 | 0.866 | 0.775 | 1.06 | 0.579 | 0.812 | 0.407 | 0.389 | 0.424 | 0.418 | 0.351
EBC-1 | – | – | – | – | – | 0.187 | 0.216 | 0.236 | 0.303 | 0.211 | 0.434 | 0.463 | 0.602 | 0.517 | 0.282 | 0.575 | 0.417 | 0.328 | 0.41 | 0.451
EKVX | 0.557 | 0.387 | 0.535 | 0.464 | 0.41 | 0.374 | 0.391 | 0.344 | 0.32 | 0.346 | 1.01 | 0.994 | 0.747 | 0.957 | 0.696 | 0.617 | 0.72 | – | 0.525 | 0.371
EMC-BAC-2 | 0.35 | 0.33 | 0.397 | 0.314 | 0.296 | 0.449 | 0.496 | 0.53 | 0.48 | 0.554 | 0.982 | 1.04 | 1.01 | 0.99 | 0.927 | 0.424 | – | 0.384 | 0.366 | 0.326
EPLC-272H | 0.509 | 0.416 | 0.337 | 0.373 | 0.242 | 0.265 | – | 0.292 | – | 0.344 | 1.03 | – | 0.73 | – | 0.352 | 0.79 | 0.673 | 0.551 | 0.687 | 0.619
H3255 | 0.335 | 0.363 | 0.336 | 0.349 | 0.339 | 0.535 | 0.552 | 0.542 | 0.526 | 0.408 | 0.664 | 0.624 | 0.886 | 0.586 | 0.604 | 0.542 | 0.569 | 0.562 | 0.533 | 0.475
HARA | – | 0.289 | 0.283 | 0.152 | 0.258 | 0.343 | 0.354 | 0.367 | 0.21 | 0.374 | 1.09 | 1.16 | 1.1 | 1.03 | 0.936 | 0.936 | 0.701 | 0.524 | 0.445 | 0.839
HCC-15 | 0.516 | 0.617 | 0.68 | 0.512 | 0.59 | 0.644 | 0.665 | 0.684 | 0.692 | 0.701 | 0.963 | 1.03 | 0.973 | 1.02 | 0.753 | 0.713 | 0.696 | 0.717 | 0.677 | 0.694
HCC-44 | – | – | – | – | – | 0.423 | 0.429 | 0.462 | 0.485 | 0.486 | 0.75 | 0.702 | 0.71 | 0.707 | 0.809 | 0.952 | 0.791 | 0.764 | 0.668 | 0.646
